The values below come from ChEMBL document CHEMBL1133120, “Synthesis and evaluation of isothiocyanate-containing derivatives of the delta-opioid receptor antagonist Tyr-Tic-Phe-Phe (TIPP) as potential affinity labels for delta-opioid receptors” (J Med Chem, 2000).

The structures appear in SMILES notation. Where a SMILES comes first, the peptide text is derived from it. [ ]: non-standard residue; d: D form. Phe(4-NH2) = Nc1ccc(C[C@H](N)C(=O)O)cc1; Tic = O=C(O)[C@@H]1Cc2ccccc2CN1 Some results are limits rather than exact numbers.

For assay [1], the target named is Delta-type opioid receptor (Mus musculus, UniProt P32300). The experiment in a line: Binding assay evaluated using […] radioligand in CHO cells transfected with mouse Opioid receptor delta 1. In kind it is cell-based.
Sequence of Delta-type opioid receptor (P32300 whole entry): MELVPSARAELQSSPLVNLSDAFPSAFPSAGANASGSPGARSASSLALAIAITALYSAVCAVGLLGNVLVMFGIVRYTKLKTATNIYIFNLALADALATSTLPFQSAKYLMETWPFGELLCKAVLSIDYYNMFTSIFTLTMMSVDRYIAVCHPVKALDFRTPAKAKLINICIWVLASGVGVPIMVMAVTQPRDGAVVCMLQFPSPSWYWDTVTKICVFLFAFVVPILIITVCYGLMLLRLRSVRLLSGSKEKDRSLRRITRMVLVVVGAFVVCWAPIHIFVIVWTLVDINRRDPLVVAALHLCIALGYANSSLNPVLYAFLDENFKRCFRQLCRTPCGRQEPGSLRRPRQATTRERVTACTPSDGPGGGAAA
The next assay has as its target Mu-type opioid receptor (Rattus norvegicus, UniProt P33535). The experiment in a line: Binding assay evaluated using DAMGO radioligand in CHO cells transfected with rat Opioid receptor mu 1. In kind it is cell-based.

Sequence of Mu-type opioid receptor (P33535 whole entry): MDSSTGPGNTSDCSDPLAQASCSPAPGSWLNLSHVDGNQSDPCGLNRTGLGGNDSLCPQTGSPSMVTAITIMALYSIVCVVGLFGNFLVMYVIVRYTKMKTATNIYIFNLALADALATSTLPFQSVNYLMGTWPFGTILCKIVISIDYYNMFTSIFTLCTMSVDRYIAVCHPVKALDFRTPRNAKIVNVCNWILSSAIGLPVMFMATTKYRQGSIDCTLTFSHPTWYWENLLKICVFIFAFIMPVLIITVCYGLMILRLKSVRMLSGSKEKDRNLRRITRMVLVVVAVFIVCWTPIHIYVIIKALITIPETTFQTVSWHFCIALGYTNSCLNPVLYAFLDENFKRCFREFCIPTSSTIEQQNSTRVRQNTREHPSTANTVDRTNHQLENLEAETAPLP

Take `N[C@@H](Cc1ccc(O)cc1)C(=O)N1Cc2ccccc2C[C@H]1C(=O)N[C@@H](Cc1ccccc1)C(=O)N[C@@H](Cc1ccc(N=C=S)cc1)C(=O)O`: the IC50 (usually the concentration that gives 50% inhibition) was 5.4 nM in assay [1] and above 10000 nM on Mu-type opioid receptor.

Turning to `N[C@@H](Cc1ccc(O)cc1)C(=O)N1Cc2ccccc2C[C@H]1C(=O)N[C@@H](Cc1ccccc1)C(=O)N[C@@H](Cc1ccccc1)C(=O)O` (H-Y[Tic]FF-OH), the values for the IC50 (in assay [1]; at Mu-type opioid receptor) were 5.8 nM and 22700 nM, respectively.

As for `N[C@@H](Cc1ccc(O)cc1)C(=O)N1Cc2ccccc2C[C@H]1C(=O)N[C@@H](Cc1ccc(N=C=S)cc1)C(=O)N[C@@H](Cc1ccccc1)C(=O)O`, the values for the IC50 (in assay [1]; on Mu-type opioid receptor) were 12.4 nM and above 10000 nM, respectively.

For the compound `Nc1ccc(C[C@H](NC(=O)[C@@H]2Cc3ccccc3CN2C(=O)[C@@H](N)Cc2ccc(O)cc2)C(=O)N[C@@H](Cc2ccccc2)C(=O)O)cc1` (H-Y[Tic][Phe(4-NH2)]F-OH), the values for the IC50 (in assay [1]; on Mu-type opioid receptor) were 87.7 nM and above 10000 nM, respectively.

Turning to `Nc1ccc(C[C@H](NC(=O)[C@H](Cc2ccccc2)NC(=O)[C@@H]2Cc3ccccc3CN2C(=O)[C@@H](N)Cc2ccc(O)cc2)C(=O)O)cc1` (H-Y[Tic]F[Phe(4-NH2)]-OH), the IC50 in assay [1] is 11.8 nM; on Mu-type opioid receptor it was above 10000 nM.
